Experiments:
[1] = biological target: T1, Alpha-1A adrenergic receptor (Homo sapiens, UniProt P35348); format: functional, cell-based
T1 sequence (P35348 whole entry): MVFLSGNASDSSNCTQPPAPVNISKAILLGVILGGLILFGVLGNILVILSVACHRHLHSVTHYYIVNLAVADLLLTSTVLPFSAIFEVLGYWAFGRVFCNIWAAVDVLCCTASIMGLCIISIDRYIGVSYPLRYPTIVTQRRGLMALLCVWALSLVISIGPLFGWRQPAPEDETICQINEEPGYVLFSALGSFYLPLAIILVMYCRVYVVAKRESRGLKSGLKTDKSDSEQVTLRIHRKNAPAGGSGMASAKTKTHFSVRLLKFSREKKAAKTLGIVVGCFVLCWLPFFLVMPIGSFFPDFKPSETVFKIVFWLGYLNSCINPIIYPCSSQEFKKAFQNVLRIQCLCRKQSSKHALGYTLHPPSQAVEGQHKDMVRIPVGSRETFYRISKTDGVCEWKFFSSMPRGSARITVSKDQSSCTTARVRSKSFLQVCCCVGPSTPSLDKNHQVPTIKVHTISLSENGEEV

[2] = biological target: T2, Alpha-2A adrenergic receptor (Homo sapiens, UniProt P08913)
T2 sequence (P08913 whole entry): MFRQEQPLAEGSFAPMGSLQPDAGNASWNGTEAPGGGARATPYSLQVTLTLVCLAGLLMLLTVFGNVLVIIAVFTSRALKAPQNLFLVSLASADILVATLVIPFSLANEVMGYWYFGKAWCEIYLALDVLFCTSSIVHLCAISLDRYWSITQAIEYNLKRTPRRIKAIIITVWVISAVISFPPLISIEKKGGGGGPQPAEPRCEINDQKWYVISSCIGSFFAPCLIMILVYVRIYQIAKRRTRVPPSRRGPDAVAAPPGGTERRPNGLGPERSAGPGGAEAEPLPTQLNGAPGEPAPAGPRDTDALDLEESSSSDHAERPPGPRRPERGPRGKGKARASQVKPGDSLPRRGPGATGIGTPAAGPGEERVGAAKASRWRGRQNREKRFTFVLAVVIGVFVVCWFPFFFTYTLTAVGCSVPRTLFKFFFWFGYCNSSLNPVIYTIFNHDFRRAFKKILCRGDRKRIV

D(1A) dopamine receptor = D(1A) dopamine receptor (Homo sapiens, UniProt P21728)
D(3) dopamine receptor = D(3) dopamine receptor (Homo sapiens, UniProt P35462)
[3] = biological target: Vascular endothelial growth factor receptor 2 (Homo sapiens, UniProt P35968); format: functional
[4] = biological target: cGMP-inhibited 3',5'-cyclic phosphodiesterase 3A (Homo sapiens, UniProt Q14432); format: functional
[5] = biological target: Sodium-dependent dopamine transporter (Homo sapiens, UniProt Q01959)
Thromboxane A2 receptor [6] = biological target: T3, Thromboxane A2 receptor (Homo sapiens, UniProt P21731); format: functional, cell-based
T3 sequence (P21731 whole entry): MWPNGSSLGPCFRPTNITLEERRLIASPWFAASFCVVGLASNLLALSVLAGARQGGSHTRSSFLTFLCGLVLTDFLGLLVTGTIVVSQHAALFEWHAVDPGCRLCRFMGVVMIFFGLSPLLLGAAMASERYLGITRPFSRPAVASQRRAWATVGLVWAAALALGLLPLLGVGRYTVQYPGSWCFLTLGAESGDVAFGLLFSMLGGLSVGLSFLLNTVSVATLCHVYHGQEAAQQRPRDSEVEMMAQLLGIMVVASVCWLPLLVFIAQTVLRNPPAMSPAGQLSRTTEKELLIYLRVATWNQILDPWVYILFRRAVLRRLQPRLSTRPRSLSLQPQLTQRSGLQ

Thromboxane A2 receptor [7] = biological target: T3, Thromboxane A2 receptor; format: functional, cell-based; remark: listed apart in the source
[8] = biological target: Beta-1 adrenergic receptor (Homo sapiens, UniProt P08588); format: functional
[9] = biological target: T4, Muscarinic acetylcholine receptor M1 (Homo sapiens, UniProt P11229); format: functional
T4 sequence (P11229 whole entry): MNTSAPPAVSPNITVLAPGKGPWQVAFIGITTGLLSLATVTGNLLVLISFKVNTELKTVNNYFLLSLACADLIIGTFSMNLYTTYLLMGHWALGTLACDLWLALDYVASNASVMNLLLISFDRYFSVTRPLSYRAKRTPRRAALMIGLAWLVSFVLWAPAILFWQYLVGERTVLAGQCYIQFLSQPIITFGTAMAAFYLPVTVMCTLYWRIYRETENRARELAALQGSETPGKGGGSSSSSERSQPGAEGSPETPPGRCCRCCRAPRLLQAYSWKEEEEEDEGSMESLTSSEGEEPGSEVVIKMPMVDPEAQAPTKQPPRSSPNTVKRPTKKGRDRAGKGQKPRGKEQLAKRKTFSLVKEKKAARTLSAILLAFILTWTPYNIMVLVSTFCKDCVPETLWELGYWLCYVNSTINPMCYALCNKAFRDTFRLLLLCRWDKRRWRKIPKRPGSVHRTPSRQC

[10] = biological target: Muscarinic acetylcholine receptor M3 (Homo sapiens, UniProt P20309)
Cannabinoid receptor 1 = Cannabinoid receptor 1 (Homo sapiens, UniProt P21554)
[11] = biological target: Gamma-aminobutyric acid receptor subunit alpha-1 (Rattus norvegicus, UniProt P62813)
Histamine H1 receptor = Histamine H1 receptor (Homo sapiens, UniProt P35367)
Histamine H3 receptor = Histamine H3 receptor (Homo sapiens, UniProt Q9Y5N1)
[12] = biological target: 5-hydroxytryptamine receptor 2B (Homo sapiens, UniProt P41595); format: functional, cell-based
Mu-type opioid receptor = Mu-type opioid receptor (Homo sapiens, UniProt P35372); experiment: biochemical; format: functional
[13] = biological target: T1, Alpha-1A adrenergic receptor; format: functional, cell-based; remark: listed apart in the source

Measured: AC50
Also: assay procedure not described here.

Muscarinic acetylcholine receptor M3, sequence (P20309 whole entry): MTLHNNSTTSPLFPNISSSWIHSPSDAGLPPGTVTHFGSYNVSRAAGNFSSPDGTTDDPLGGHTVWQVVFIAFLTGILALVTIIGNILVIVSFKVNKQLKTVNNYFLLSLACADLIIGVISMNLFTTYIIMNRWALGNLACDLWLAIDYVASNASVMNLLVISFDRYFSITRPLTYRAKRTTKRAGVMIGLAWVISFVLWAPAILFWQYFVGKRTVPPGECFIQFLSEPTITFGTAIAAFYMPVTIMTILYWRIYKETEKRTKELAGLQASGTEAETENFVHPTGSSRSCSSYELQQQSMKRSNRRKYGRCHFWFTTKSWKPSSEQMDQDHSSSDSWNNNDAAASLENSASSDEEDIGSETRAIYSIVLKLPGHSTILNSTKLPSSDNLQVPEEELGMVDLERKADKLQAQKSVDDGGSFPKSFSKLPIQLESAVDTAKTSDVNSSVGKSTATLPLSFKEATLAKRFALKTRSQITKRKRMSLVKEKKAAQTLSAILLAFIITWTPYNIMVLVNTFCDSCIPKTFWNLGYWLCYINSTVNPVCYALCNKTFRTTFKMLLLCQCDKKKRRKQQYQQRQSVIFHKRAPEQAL
Cannabinoid receptor 1, sequence (P21554 whole entry): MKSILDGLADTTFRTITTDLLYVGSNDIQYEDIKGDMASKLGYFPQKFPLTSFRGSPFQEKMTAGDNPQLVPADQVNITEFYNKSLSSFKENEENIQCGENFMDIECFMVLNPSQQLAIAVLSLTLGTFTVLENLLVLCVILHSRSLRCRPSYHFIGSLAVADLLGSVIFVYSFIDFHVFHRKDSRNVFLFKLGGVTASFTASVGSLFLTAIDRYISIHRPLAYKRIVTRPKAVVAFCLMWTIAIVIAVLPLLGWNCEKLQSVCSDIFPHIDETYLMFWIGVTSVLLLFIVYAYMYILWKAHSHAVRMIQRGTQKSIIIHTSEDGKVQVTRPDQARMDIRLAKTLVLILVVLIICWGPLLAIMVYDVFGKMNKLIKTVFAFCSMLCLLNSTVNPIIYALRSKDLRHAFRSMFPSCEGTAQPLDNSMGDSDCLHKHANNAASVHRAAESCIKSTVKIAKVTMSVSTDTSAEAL
5-hydroxytryptamine receptor 2B, sequence (P41595 whole entry): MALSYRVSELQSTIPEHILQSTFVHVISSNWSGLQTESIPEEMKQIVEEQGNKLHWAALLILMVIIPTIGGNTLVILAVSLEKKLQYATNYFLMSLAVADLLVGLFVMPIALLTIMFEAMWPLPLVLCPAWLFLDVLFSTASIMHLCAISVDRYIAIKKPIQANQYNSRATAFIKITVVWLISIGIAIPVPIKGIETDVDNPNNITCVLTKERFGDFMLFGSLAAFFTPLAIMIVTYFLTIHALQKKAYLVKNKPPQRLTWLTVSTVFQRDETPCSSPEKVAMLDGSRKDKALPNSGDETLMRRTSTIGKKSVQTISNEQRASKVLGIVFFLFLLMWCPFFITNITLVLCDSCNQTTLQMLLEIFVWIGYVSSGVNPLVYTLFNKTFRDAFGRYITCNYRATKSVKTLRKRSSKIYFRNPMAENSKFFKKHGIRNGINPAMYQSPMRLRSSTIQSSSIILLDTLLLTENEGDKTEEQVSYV
Vascular endothelial growth factor receptor 2, sequence (P35968 whole entry): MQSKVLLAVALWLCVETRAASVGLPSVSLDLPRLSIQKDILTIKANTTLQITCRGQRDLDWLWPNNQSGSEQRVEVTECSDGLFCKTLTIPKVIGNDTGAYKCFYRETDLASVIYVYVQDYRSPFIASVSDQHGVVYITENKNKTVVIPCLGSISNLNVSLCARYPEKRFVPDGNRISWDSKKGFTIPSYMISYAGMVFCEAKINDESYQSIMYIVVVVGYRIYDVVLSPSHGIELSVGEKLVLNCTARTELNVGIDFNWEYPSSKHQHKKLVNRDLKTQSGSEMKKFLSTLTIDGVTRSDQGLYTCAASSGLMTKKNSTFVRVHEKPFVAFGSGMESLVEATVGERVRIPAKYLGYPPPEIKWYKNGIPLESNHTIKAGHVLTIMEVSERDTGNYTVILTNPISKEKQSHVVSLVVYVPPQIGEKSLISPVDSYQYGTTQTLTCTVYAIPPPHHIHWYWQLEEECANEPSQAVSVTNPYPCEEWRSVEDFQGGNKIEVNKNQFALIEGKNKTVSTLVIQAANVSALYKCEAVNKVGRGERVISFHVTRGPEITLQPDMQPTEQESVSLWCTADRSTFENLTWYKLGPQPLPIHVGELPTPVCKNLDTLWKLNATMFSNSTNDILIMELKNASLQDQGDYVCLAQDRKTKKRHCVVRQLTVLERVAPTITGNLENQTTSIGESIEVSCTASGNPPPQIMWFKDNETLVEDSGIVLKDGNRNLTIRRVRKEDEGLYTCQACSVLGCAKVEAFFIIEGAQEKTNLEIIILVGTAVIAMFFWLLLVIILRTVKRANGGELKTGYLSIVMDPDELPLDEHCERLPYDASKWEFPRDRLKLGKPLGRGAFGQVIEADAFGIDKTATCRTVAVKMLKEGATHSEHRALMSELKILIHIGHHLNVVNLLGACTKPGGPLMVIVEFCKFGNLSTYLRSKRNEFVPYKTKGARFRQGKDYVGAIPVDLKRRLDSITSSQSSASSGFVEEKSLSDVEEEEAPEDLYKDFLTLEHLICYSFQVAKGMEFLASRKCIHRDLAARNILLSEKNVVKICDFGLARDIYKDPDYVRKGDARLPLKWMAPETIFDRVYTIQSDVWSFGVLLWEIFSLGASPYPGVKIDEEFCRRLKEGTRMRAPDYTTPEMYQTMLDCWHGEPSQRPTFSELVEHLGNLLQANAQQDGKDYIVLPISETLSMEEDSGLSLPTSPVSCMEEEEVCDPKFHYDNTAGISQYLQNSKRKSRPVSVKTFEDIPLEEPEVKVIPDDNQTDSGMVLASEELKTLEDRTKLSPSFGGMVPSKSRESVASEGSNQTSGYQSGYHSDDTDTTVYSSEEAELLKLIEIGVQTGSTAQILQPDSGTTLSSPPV
Mu-type opioid receptor, sequence (P35372 whole entry): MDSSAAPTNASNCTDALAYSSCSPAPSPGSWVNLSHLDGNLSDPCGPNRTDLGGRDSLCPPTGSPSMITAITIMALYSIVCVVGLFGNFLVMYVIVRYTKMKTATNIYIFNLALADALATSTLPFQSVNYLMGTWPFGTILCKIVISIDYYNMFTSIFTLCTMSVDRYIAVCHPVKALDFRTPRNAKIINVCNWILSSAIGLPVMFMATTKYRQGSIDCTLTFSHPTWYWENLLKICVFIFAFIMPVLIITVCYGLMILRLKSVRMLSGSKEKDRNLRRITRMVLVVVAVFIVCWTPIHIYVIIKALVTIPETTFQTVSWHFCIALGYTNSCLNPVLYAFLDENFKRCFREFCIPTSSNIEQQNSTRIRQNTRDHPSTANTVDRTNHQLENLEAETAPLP
cGMP-inhibited 3',5'-cyclic phosphodiesterase 3A, sequence (Q14432 whole entry): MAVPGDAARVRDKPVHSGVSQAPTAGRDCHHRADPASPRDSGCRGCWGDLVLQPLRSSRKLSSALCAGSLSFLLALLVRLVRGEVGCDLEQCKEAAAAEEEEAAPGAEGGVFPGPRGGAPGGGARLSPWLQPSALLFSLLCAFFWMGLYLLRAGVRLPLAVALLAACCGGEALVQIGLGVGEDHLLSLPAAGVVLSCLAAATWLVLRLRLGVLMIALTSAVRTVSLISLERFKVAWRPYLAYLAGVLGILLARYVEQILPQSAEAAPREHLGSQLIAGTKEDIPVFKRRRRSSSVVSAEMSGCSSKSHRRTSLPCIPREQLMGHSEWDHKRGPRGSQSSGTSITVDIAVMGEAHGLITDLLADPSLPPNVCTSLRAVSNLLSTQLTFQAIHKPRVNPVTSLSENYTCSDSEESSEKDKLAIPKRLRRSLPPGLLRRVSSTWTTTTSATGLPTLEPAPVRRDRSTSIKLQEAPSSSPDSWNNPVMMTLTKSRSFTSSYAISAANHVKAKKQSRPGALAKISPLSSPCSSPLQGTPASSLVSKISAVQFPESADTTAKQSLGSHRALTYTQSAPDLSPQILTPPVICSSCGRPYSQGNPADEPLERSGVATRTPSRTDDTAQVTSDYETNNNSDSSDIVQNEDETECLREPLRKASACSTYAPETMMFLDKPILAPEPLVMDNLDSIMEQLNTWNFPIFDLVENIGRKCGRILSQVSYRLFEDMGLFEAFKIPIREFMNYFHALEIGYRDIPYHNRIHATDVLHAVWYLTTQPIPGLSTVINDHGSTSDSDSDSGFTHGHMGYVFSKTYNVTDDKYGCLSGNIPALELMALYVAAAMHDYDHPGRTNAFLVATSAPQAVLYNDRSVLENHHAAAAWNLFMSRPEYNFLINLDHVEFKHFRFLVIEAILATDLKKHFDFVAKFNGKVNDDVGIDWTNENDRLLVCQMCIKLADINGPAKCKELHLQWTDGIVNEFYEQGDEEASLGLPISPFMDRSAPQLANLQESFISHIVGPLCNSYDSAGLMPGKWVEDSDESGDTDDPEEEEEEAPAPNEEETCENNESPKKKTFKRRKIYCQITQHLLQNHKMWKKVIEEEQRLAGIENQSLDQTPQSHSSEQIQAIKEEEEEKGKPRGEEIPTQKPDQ
D(3) dopamine receptor, sequence (P35462 whole entry): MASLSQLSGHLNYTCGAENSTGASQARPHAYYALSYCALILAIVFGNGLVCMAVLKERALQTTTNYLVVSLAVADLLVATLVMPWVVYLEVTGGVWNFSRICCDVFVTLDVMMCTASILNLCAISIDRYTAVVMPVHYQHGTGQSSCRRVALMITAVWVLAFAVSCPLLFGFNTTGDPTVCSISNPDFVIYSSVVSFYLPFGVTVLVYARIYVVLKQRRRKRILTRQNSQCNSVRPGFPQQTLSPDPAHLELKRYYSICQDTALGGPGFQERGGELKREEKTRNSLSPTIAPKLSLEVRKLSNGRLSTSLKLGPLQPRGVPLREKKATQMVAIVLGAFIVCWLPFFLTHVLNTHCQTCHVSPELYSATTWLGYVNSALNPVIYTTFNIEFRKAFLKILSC

CC(C)N(CCNC(=O)CN1CCCC1=O)C(C)C
> 30 µM: [1] | [2] | D(1A) dopamine receptor | D(3) dopamine receptor | [3] | [4] | [5] | Thromboxane A2 receptor [6] | Thromboxane A2 receptor [7]

CCC[C@H](NC(=O)[C@@H]1[C@H]2CCC[C@H]2CN1C(=O)[C@@H](NC(=O)[C@@H](NC(=O)c1cnccn1)C1CCCCC1)C(C)(C)C)C(=O)C(=O)NC1CC1
> 10 µM: [8] | [9] | Cannabinoid receptor 1 | [11] | Histamine H1 receptor | Histamine H3 receptor
> 30 µM: [10]

Cc1cc(N)c2ccccc2[n+]1CCCCCCCCCC[n+]1c(C)cc(N)c2ccccc21
3.21 µM: [1]
10 µM: [4]
0.89 µM: [5]
0.0798 µM: D(3) dopamine receptor
1.04 µM: D(1A) dopamine receptor
0.464 µM: [2]
> 30 µM: [3] | Thromboxane A2 receptor [6] | Thromboxane A2 receptor [7]

CCOC(=O)[C@H](CCc1ccccc1)N[C@@H](C)C(=O)N(CC(=O)O)C1Cc2ccccc2C1
> 30 µM: [1] | [2] | D(1A) dopamine receptor | D(3) dopamine receptor | [3] | [4] | [5] | Thromboxane A2 receptor [6] | Thromboxane A2 receptor [7]

C=CCSCC1Nc2cc(Cl)c(S(N)(=O)=O)cc2S(=O)(=O)N1 (stereo unspecified) [ALTHIAZIDE]
> 30 µM: [1] | [2] | D(1A) dopamine receptor | D(3) dopamine receptor | [3] | [4] | [5] | Thromboxane A2 receptor [6] | Thromboxane A2 receptor [7]

CCN(CCCc1ccccc1)CCCc1ccccc1 [ALVERINE]
3.72 µM: D(1A) dopamine receptor
1.96 µM: [2] | D(3) dopamine receptor
0.978 µM: [1]
> 30 µM: [3] | [4] | Thromboxane A2 receptor [6] | Thromboxane A2 receptor [7]
0.481 µM: [5]

COc1cc(N2CCC(N3CCN(C)CC3)CC2)ccc1Nc1ncc(Cl)c(Nc2ccccc2P(C)(C)=O)n1 [BRIGATINIB]
> 30 µM: [1] | [2] | D(1A) dopamine receptor | D(3) dopamine receptor | [4] | [5] | Thromboxane A2 receptor [6] | Thromboxane A2 receptor [7]
0.183 µM: [3]

O=C(O)c1cn(C2CC2)c2cc(N3CCNCC3)c(F)cc2c1=O [CIPROFLOXACIN]
> 30 µM: [4] | Thromboxane A2 receptor [6] | Thromboxane A2 receptor [7]

Cc1ccccc1N1CCN(CCc2nnc3n2CCCC3)CC1 [DAPIPRAZOLE]
3.77 µM: [2]
16.6 µM: D(3) dopamine receptor
> 30 µM: D(1A) dopamine receptor | [3] | [4] | [5] | Thromboxane A2 receptor [6] | Thromboxane A2 receptor [7]

CCN(CC)C(=S)S [DITIOCARB]
> 1 µM: [1] | Thromboxane A2 receptor [7]
> 30 µM: [2] | D(1A) dopamine receptor | D(3) dopamine receptor | [4] | [5] | Thromboxane A2 receptor [6]

C=C1CC[C@H](O)C/C1=C/C=C1\CCC[C@]2(C)[C@@H]([C@H](C)/C=C/[C@H](C)C(C)C)CC[C@@H]12 [ERGOCALCIFEROL]
> 30 µM: [2] | D(1A) dopamine receptor | D(3) dopamine receptor | [4] | [5] | Thromboxane A2 receptor [6] | Thromboxane A2 receptor [7]

CC(C(=O)O)c1ccc(-c2ccccc2)c(F)c1 (stereo unspecified) [FLURBIPROFEN]
> 10 µM: [8] | Cannabinoid receptor 1 | [11] | [12]
not listed: [3] | [9] | [10] | Histamine H1 receptor | Histamine H3 receptor | [13]
> 30 µM: all other assays above

Cc1cnc(C(=O)NCCc2ccc(S(=O)(=O)NC(=O)NC3CCCCC3)cc2)cn1 [GLIPIZIDE]
> 3 µM: [1]
> 10 µM: [8] | Histamine H3 receptor
> 30 µM: [2] | [4] | Thromboxane A2 receptor [6] | Thromboxane A2 receptor [7]

CC(C)NCC(O)c1ccc(O)c(O)c1 (stereo unspecified) [ISOPROTERENOL]
> 10 µM: Cannabinoid receptor 1 | [11] | [12] | Histamine H3 receptor

OC1(c2ccc(Cl)cc2)c2ccccc2C2=NCCN21 (stereo unspecified) [MAZINDOL]
16 µM: Mu-type opioid receptor
> 10 µM: Cannabinoid receptor 1
> 30 µM: [8] | [9] | [10] | [11] | [12] | [13] | Histamine H3 receptor
7.5 µM: Histamine H1 receptor

[H]/N=C(/N)N/C(=N/[H])NCCc1ccccc1 [PHENFORMIN]
> 30 µM: [9] | [10] | Cannabinoid receptor 1 | Histamine H1 receptor | Mu-type opioid receptor
> 10 µM: [8] | [11] | [12] | Histamine H3 receptor

CCCCC1C(=O)N(c2ccccc2)N(c2ccccc2)C1=O [PHENYLBUTAZONE]
> 10 µM: [8] | Cannabinoid receptor 1 | [11] | [12]

CC[C@@H]([C@H](C)O)n1ncn(-c2ccc(N3CCN(c4ccc(OC[C@@H]5CO[C@@](Cn6cncn6)(c6ccc(F)cc6F)C5)cc4)CC3)cc2)c1=O [POSACONAZOLE]
> 30 µM: [2] | [9] | D(1A) dopamine receptor | D(3) dopamine receptor | Histamine H1 receptor | [4] | [5] | Thromboxane A2 receptor [6]
> 1 µM: [1] | Thromboxane A2 receptor [7]

CCCN[C@H]1CCc2nc(N)sc2C1 [PRAMIPEXOLE]
> 30 µM: [8] | [10]
13 µM: [13]
> 10 µM: [9] | [11] | Histamine H1 receptor | [12] | Histamine H3 receptor

COc1ccc(CN(CCN(C)C)c2ccccn2)cc1 [PYRILAMINE]
2.41 µM: [5]
24.2 µM: D(1A) dopamine receptor
> 30 µM: [1] | [3] | [4] | Thromboxane A2 receptor [6] | Thromboxane A2 receptor [7]
7.07 µM: [2]

Cc1noc(NS(=O)(=O)c2ccc(N)cc2)c1C [SULFISOXAZOLE]
> 10 µM: [8] | Cannabinoid receptor 1 | [11] | [12] | Histamine H3 receptor
22 µM: [13]

Cc1cc2cc3c(C)cc(=O)oc3c(C)c2o1 [TRIOXSALEN]
> 30 µM: Mu-type opioid receptor
> 10 µM: [8] | Cannabinoid receptor 1 | [11] | [12]

Source: ChEMBL document CHEMBL5291721, “A preclinical secondary pharmacology resource illuminates target-adverse drug reaction associations of marketed drugs” (Nat Commun, 2023)
